# Data from ChEMBL document CHEMBL3739370, “Synthesis and evaluation of amide, sulfonamide and urea benzisoxazole derivatives as potential atypical antipsychotics” (Medchemcomm, 2015).
# Experiments:
# [1] = target: T1, 5-hydroxytryptamine receptor 2C (Rattus norvegicus, UniProt P08909); experiment: Displacement of [3H]mesulergine from 5HT2C receptor in rat brain cortex; format: tissue-based
# T1 sequence (P08909 whole entry): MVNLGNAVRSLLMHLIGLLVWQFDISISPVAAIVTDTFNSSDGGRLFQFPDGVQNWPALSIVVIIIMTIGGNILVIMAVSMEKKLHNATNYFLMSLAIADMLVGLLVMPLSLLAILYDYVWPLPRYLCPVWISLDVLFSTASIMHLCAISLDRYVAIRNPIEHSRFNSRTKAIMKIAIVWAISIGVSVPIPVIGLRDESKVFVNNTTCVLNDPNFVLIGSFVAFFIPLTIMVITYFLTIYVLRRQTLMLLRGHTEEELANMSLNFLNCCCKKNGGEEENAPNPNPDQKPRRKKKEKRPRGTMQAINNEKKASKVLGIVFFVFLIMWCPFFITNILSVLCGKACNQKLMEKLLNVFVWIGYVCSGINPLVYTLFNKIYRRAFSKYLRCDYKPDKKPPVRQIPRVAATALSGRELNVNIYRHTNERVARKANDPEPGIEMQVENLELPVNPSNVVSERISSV
# [2] = target: T2, Adrenergic receptor alpha-2 (Rattus norvegicus, UniProt P22086+P19328+P22909); experiment: Displacement of [3H]rauwolscine from adrenergic alpha2 receptor in rat brain cortex; format: tissue-based
# T2 sequence (P22086 whole entry): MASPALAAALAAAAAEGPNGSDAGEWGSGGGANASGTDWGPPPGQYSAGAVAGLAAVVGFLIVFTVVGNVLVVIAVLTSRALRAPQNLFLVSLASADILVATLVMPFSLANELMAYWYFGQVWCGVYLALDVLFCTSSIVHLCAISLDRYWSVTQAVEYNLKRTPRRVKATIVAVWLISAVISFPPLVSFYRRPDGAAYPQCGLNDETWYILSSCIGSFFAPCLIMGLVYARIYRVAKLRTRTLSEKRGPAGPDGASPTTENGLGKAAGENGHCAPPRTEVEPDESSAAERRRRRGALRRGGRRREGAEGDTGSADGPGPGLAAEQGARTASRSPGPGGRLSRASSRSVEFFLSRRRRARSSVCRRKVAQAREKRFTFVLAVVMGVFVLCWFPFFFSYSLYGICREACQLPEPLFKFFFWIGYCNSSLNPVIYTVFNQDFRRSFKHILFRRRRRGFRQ
# T2 sequence (P19328 whole entry): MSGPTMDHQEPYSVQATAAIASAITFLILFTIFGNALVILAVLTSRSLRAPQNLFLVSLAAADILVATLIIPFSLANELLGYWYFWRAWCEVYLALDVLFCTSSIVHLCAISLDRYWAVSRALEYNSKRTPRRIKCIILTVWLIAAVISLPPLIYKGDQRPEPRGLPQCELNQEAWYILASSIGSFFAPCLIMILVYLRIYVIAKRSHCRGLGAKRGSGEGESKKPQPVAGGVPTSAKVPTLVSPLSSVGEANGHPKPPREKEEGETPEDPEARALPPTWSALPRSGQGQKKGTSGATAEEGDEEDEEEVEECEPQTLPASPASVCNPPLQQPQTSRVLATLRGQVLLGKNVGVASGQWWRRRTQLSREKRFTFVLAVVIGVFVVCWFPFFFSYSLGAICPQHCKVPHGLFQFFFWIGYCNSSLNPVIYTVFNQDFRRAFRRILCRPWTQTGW
# T2 sequence (P22909 whole entry): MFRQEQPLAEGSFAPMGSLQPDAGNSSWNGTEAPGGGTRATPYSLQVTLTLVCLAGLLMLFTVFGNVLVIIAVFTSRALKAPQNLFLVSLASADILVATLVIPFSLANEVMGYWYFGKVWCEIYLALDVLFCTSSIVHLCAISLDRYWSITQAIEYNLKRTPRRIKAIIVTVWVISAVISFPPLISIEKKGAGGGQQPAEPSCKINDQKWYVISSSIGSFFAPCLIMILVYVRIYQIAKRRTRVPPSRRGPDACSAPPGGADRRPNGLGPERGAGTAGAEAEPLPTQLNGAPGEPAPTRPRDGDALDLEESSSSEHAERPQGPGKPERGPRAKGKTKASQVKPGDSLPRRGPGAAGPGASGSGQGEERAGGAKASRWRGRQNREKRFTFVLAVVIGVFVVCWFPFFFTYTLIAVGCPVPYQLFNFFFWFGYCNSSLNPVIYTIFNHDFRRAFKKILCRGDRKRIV
# [3] = tested on: Mus musculus; experiment: Selectivity ratio of ED50 for po dosed mouse assessed as catalepsy to ED50 for po dosed mouse assessed as reversal of apomorphine-induced climbing activity
# [4] = tested on: Mus musculus; experiment: Antipsychotic activity in po dosed mouse assessed as reversal of DOI-induced head twitch activity; format: functional
# [5] = tested on: Mus musculus; experiment: Selectivity ratio of ED50 for po dosed mouse assessed as catalepsy to ED50 for po dosed mouse assessed as reversal of MK-801-induced hyperactivity
# [6] = tested on: Mus musculus; experiment: Antipsychotic activity in po dosed mouse assessed as reversal of apomorphine-induced climbing activity; format: functional
# [7] = target: D(3) dopamine receptor (Homo sapiens) (UniProt P35462); experiment: Agonist activity at dopamine D3 receptor (unknown origin) at 10 uM relative to dopamine
# Sequence of D(3) dopamine receptor (Homo sapiens) (P35462 whole entry): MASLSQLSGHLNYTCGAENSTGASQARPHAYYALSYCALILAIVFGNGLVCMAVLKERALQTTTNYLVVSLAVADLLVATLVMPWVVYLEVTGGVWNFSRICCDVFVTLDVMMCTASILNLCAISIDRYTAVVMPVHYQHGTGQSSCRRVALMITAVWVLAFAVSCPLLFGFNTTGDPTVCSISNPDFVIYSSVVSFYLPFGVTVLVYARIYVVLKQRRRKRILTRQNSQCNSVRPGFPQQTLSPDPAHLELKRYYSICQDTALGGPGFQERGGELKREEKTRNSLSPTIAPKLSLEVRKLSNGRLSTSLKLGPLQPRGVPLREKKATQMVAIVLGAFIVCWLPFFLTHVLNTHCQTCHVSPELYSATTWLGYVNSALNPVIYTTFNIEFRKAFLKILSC
# [8] = target: T3, 5-hydroxytryptamine receptor 1A (Homo sapiens) (UniProt P08908); experiment: Agonist activity at […] receptor (unknown origin) at 10 uM relative to 5-HT
# T3 sequence (whole entry): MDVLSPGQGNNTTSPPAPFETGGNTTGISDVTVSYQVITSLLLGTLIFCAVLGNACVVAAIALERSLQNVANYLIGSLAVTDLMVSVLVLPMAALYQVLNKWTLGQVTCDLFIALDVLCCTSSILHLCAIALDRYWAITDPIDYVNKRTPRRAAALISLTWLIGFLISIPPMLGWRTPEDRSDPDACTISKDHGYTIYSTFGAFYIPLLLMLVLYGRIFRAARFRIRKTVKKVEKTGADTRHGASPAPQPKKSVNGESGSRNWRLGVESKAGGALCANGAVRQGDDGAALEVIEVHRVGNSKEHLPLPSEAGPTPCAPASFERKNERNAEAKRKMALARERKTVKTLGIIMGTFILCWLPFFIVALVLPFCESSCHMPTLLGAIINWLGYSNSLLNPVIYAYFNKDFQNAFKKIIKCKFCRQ
# [9] = target: D(2) dopamine receptor (Homo sapiens) (UniProt P14416); experiment: Agonist activity at dopamine D2 receptor (unknown origin) at 10 uM relative to dopamine
# Sequence of D(2) dopamine receptor (Homo sapiens) (P14416 whole entry): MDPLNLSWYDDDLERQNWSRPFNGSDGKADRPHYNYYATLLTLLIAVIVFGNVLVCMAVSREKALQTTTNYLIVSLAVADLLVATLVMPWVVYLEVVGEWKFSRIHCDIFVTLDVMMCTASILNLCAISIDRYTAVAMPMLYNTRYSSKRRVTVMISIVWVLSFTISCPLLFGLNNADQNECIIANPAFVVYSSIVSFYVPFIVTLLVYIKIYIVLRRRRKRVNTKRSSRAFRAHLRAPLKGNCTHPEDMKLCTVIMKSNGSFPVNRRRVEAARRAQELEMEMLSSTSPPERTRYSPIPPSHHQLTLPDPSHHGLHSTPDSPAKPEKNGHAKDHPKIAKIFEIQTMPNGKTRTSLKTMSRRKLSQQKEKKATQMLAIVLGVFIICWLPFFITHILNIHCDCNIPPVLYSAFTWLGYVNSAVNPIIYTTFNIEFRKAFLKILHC
# [10] = tested on: Mus musculus; experiment: Antipsychotic activity in po dosed mouse assessed as reversal of MK-801-induced hyperactivity; format: functional
# [11] = target: 5-hydroxytryptamine receptor 2A (Homo sapiens) (UniProt P28223); experiment: Antagonist activity at […] receptor (unknown origin) at 10 uM
# Sequence of 5-hydroxytryptamine receptor 2A (Homo sapiens) (P28223 whole entry): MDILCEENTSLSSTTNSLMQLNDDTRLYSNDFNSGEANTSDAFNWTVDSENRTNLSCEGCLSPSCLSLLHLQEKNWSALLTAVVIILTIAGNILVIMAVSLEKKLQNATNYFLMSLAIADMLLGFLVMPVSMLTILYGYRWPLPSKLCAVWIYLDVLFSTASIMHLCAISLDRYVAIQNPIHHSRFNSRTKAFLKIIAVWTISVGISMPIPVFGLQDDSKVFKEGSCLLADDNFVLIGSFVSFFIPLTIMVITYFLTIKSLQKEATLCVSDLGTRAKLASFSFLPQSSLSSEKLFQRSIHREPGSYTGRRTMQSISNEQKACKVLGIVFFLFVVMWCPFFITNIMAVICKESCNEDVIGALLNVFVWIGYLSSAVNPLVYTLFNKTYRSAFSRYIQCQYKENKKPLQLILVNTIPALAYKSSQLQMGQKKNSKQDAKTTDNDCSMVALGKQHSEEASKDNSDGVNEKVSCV
# [12] = target: 5-hydroxytryptamine receptor 2A (Homo sapiens) (UniProt P28223); experiment: Agonist activity at […] receptor (unknown origin) at 10 uM relative to 5-HT
# [13] = target: D(2) dopamine receptor (Homo sapiens) (UniProt P14416); experiment: Antagonist activity at dopamine D2 receptor (unknown origin) at 10 uM
# [14] = tested on: Mus musculus; experiment: Toxicity in po dosed mouse assessed as catalepsy; format: organism-based; conditions: in vivo
Ki [1],Ki [2],Activity [7],Activity [8],Activity [9],inhibition [11],Activity [12],inhibition [13],SMILES,Ratio ED50 [3],ED50 [4],Ratio ED50 [5],ED50 [6],ED50 [10],ED50 [14]
137 nM,568.3 nM,,,,,,,O=S(=O)(c1ccc(C(F)(F)F)cc1)N1CCC(CN2CCC(c3noc4cc(F)ccc34)CC2)CC1,,,,,,
998 nM,967.3 nM,3.7%,8.2%,5.9%,100%,6.8%,100%,O=[N+]([O-])c1ccc(S(=O)(=O)N2CCC(CN3CCC(c4noc5cc(F)ccc45)CC3)CC2)cc1,108.8,0.57 mg/kg,61.3,0.4 mg/kg,0.71 mg/kg,43.53 mg/kg
